# Measured values from ChEMBL document CHEMBL4622971, “The Optimization of a Novel, Weak Bromo and Extra Terminal Domain (BET) Bromodomain Fragment Ligand to a Potent and Selective Second Bromodomain (BD2) Inhibitor” (J Med Chem, 2020).
# Experiments:
# [1] = Distribution coefficient, logD of the compound at pH 7.4 by chromatography; assay type: physicochemical
# [2] = Intrinsic clearance in dog hepatocytes at 0.5 uM incubated for 120 mins by LC-MS/MS analysis; assay type: ADME, cell-based, Canis lupus familiaris, Hepatocyte; settings: 2 h
# [3] = Blood clearance in male Wistar Han rat at 1 mg/kg, iv measured up to 7 hrs by LC-MS/MS analysis; assay type: ADME, organism-based; settings: whole blood
# [4] = Volume of distribution at steady state in male Wistar Han rat at 1 mg/kg, iv measured up to 7 hrs by LC-MS/MS analysis; assay type: ADME, organism-based; settings: in vivo, read-out: Vdss
# [5] = Half life in male Wistar Han rat at 1 mg/kg, iv measured up to 7 hrs by LC-MS/MS analysis; assay type: ADME, organism-based; settings: in vivo
# [6] = Oral bioavailability in male Wistar Han rat at 3 mg/kg measured up to 7 hrs by LC-MS/MS analysis; assay type: ADME, organism-based; settings: in vivo
# [7] = Intrinsic clearance in rat hepatocytes at 0.5 uM incubated for 60 mins by LC-MS/MS analysis; assay type: ADME, cell-based, Hepatocyte; settings: 1 h
# [8] = Intrinsic clearance in human hepatocytes at 0.5 uM incubated for 120 mins by LC-MS/MS analysis; assay type: ADME, cell-based, Hepatocyte; settings: 2 h
# [9] = Intrinsic clearance in Wistar Han rat liver microsomes at 0.5 uM pre-incubated up to 45 mins before NADPH addition by LC-MS/MS analysis; assay type: ADME, Microsome
# [10] = Intrinsic clearance in human liver microsomes at 0.5 uM pre-incubated up to 45 mins before NADPH addition by LC-MS/MS analysis; assay type: ADME, Microsome
# [11] = Half life in male Wistar Han rat at […], iv measured up to 7 hrs by LC-MS/MS analysis; settings: in vivo
# [12] = Blood clearance in male Wistar Han rat at […], iv measured up to 7 hrs by LC-MS/MS analysis; settings: whole blood
# [13] = Volume of distribution at steady state in male Wistar Han rat at […], iv measured up to 7 hrs by LC-MS/MS analysis; settings: in vivo, read-out: Vdss
# [14] = Dose normalized AUC in male Wistar Han rat at 3 mg/kg, po measured up to 7 hrs by LC-MS/MS analysis; assay type: ADME, organism-based; settings: in vivo
# [15] = Blood clearance in beagle dog at 10.5 mg/kg, iv measured up to 7 hrs by LC-MS/MS analysis; assay type: ADME, organism-based, Canis lupus familiaris; settings: whole blood
# [16] = Volume of distribution at steady state in beagle dog at 10.5 mg/kg, iv measured up to 7 hrs by LC-MS/MS analysis; assay type: ADME, organism-based, Canis lupus familiaris; settings: in vivo, read-out: Vdss
# [17] = Half life in beagle dog at 10.5 mg/kg, iv measured up to 7 hrs by LC-MS/MS analysis; assay type: ADME, organism-based, Canis lupus familiaris; settings: in vivo
# [18] = Oral bioavailability in beagle dog at 10.5 mg/kg, iv measured up to 7 hrs by LC-MS/MS analysis; assay type: ADME, organism-based, Canis lupus familiaris; settings: in vivo
smiles,measurement,setting,value
CCNC(=O)c1cc(C(=O)NC)c(=O)n(Cc2ccccc2)c1,chromatographic logD,[1],3
same,CLH,[2],< 1.26 mL/min/g
same,clearance,[3],12 mL/min/kg
same,Vd,[4],0.8 L/kg
same,half-life,[5],36 min
same,bioavailability,[6],104%
same,CLH,[7],< 0.8 mL/min/g
same,CLH,[8],< 0.87 mL/min/g
CNC(=O)c1cccn(Cc2ccccc2)c1=O,chromatographic logD,[1],3
CNC(=O)c1cc(C(=O)NC2CC2)cn(Cc2ccccc2F)c1=O,chromatographic logD,[1],3
CNC(=O)c1cc(C(=O)NC2CC2)cn(Cc2cccc3cc[nH]c23)c1=O,chromatographic logD,[1],3.7
CNC(=O)c1cc(C(=O)NCCC2CCCNC2)cn(Cc2ccccc2)c1=O (stereo not drawn),chromatographic logD,[1],1.6
CNC(=O)c1cc(C(=O)NC2CC2)cn(Cc2cccc(C)c2)c1=O,chromatographic logD,[1],3.6
CNC(=O)c1cc(C(=O)NCCC(C)C)cn(Cc2ccccc2)c1=O,chromatographic logD,[1],4.8
CNC(=O)c1cc(C(N)=O)cn(Cc2ccccc2)c1=O,chromatographic logD,[1],2
CNC(=O)c1cc(C(=O)NC2CCC2)cn(Cc2cccc(NC)c2)c1=O,chromatographic logD,[1],3.6
CNC(=O)c1cc(C(=O)NC2CC2)cn(Cc2ccc3nc[nH]c3c2)c1=O,chromatographic logD,[1],1.2
CNC(=O)c1cc(C(=O)NC2CC2)cn(CC2CCCCC2)c1=O,chromatographic logD,[1],4
CNC(=O)c1cc(C(=O)NC2CC2)cn(Cc2cccc(OC)c2)c1=O,chromatographic logD,[1],3
CNC(=O)c1ccc(=O)n(Cc2cc(Br)ccc2F)c1,chromatographic logD,[1],2.6
same,CLH,[9],0.76 mL/min/g
same,CLH,[10],0.53 mL/min/g
CNC(=O)c1cc(C(=O)NC2CC2)cn(Cc2ccc(F)cc2)c1=O,chromatographic logD,[1],3.2
CNC(=O)c1cc(C(=O)NC2CC2)cn(Cc2cccc(CCN3CCOCC3)c2)c1=O,chromatographic logD,[1],2.3
CNC(=O)c1cc(C(=O)NC2CC2)cn(Cc2cccc(C#N)c2)c1=O,chromatographic logD,[1],2.6
CNC(=O)c1cc(C(=O)NC2CC2)cn(Cc2cccc3c2CCN3)c1=O,chromatographic logD,[1],2.1
same,CLH,[2],< 1.26 mL/min/g
same,clearance,[3],16 mL/min/kg
same,Vd,[4],0.9 L/kg
same,half-life,[5],36 min
same,bioavailability,[6],53%
same,CLH,[7],< 0.8 mL/min/g
same,CLH,[8],< 0.45 mL/min/g
CNC(=O)c1cc(C(=O)NC2CCC2)cn(Cc2cccnc2)c1=O,chromatographic logD,[1],1.8
CNC(=O)c1cc(C(=O)NC2CC2)cn(Cc2cccc3[nH]c(C)nc23)c1=O,chromatographic logD,[1],1.5
CNC(=O)c1cc(C(=O)NCCO)cn(Cc2ccccc2)c1=O,chromatographic logD,[1],1.9
CNC(=O)c1cc(C(=O)NC2CCC2)cn(Cc2ccccc2)c1=O,chromatographic logD,[1],3.8
CNC(=O)c1cc(C(=O)NC2CC2)cn(Cc2ccc(C)cc2)c1=O,chromatographic logD,[1],3.5
CNC(=O)c1ccc(=O)n(Cc2ccccc2)c1,chromatographic logD,[1],1.6
CCNC(=O)c1cccn(Cc2ccccc2)c1=O,chromatographic logD,[1],3.7
CNC(=O)c1cc(C(=O)NC2CC2)cn(Cc2ccc(OC)cc2)c1=O,chromatographic logD,[1],3
CNC(=O)c1cc(C(=O)NC2CC2)cn(Cc2cccc([C@@H](C)O)c2)c1=O,chromatographic logD,[1],2.2
same,CLH,[2],< 1.26 mL/min/g
same,clearance,[3],74 mL/min/kg
same,Vd,[4],1.7 L/kg
same,half-life,[5],24 min
same,CLH,[7],3 mL/min/g
same,CLH,[8],< 0.45 mL/min/g
CNC(=O)c1cc(C(=O)NC2CCOCC2)cn(Cc2ccccc2)c1=O,chromatographic logD,[1],2.8
CNC(=O)c1cc(C(=O)NC2CC2)cn(Cc2cccc3occc23)c1=O,chromatographic logD,[1],3.4
CNC(=O)c1cc(C(=O)NC2CC2)cn(Cc2nccc3[nH]ccc23)c1=O,chromatographic logD,[1],1.7
CNC(=O)c1cc(C(=O)NCCC2CCOCC2)cn(Cc2ccccc2)c1=O,chromatographic logD,[1],3.6
CNC(=O)c1cc(C(=O)NCCOC)cn(Cc2ccccc2)c1=O,chromatographic logD,[1],2.7
CNC(=O)c1cc(C(=O)NC)c(=O)n(Cc2ccccc2)c1,chromatographic logD,[1],2.4
CNC(=O)c1cc(C(=O)NC2CC2)cn([C@H](C)c2ccccc2)c1=O,chromatographic logD,[1],3.5
same,CLH,[7],1.5 mL/min/g
same,CLH,[8],< 0.87 mL/min/g
same,half-life at 7 h,[11],24 min
same,clearance at 7 h,[12],72 mL/min/kg
same,Vd at 7 h,[13],1.6 L/kg
CNC(=O)c1cc(C(=O)NC2CC2)cn(CC2CCOCC2)c1=O,chromatographic logD,[1],1.5
CNC(=O)c1cc(C(=O)NC2CCC2)cn(Cc2ccncc2)c1=O,chromatographic logD,[1],1.7
CNC(=O)c1cc(C(=O)NC2CC2)cn(Cc2cccc3[nH]ncc23)c1=O,chromatographic logD,[1],1.5
same,clearance,[3],42 mL/min/kg
same,Vd,[4],1.2 L/kg
same,half-life,[5],24 min
same,bioavailability,[6],14%
same,CLH,[7],< 0.8 mL/min/g
same,CLH,[8],< 0.45 mL/min/g
CNC(=O)c1cc(C(=O)NC(C)C)cn(Cc2ccccc2)c1=O,chromatographic logD,[1],3.6
CNC(=O)c1cc(C(=O)NC2CC2)cn(Cc2cccc(F)c2)c1=O,chromatographic logD,[1],3.2
CNC(=O)c1cc(C(=O)NC2CC2)c(C)n(Cc2ccccc2)c1=O,chromatographic logD,[1],2.9
CNC(=O)c1cc(C(=O)NC2CC2)cn(Cc2cccc3[nH]ccc23)c1=O,chromatographic logD,[1],2.9
same,CLH,[2],< 1.26 mL/min/g
same,clearance,[3],23 mL/min/kg
same,Vd,[4],1.3 L/kg
same,half-life,[5],48 min
same,AUC/dose,[14],23.6 kg·min/L
same,CLH,[7],1.66 to 1.7 mL/min/g
same,CLH,[8],< 0.45 mL/min/g
CNC(=O)c1cc(C(=O)NC2CCC2)cn(Cc2ccccn2)c1=O,chromatographic logD,[1],2.2
CNC(=O)c1cc(C(=O)NCC(C)C)cn(Cc2ccccc2)c1=O,chromatographic logD,[1],4.3
CNC(=O)c1cc(C(=O)NC2CC2)cn(Cc2cccc3cn[nH]c23)c1=O,chromatographic logD,[1],2.2
CNC(=O)c1cc(C(=O)NCCCC2CNCCO2)cn(Cc2ccccc2)c1=O (racemic),chromatographic logD,[1],1.4
CNC(=O)c1cc(C(=O)NC2CC2)cn(CC2CCCOC2)c1=O (racemic),chromatographic logD,[1],2
CNC(=O)c1cc(C(=O)NC2CC2)cn(CC2CCCCO2)c1=O (racemic),chromatographic logD,[1],2.6
CNC(=O)c1cc(C(=O)NC2CC2)cn(Cc2ccccc2)c1=O [GSK620],chromatographic logD,[1],3.1
same,CLH,[2],< 1.26 mL/min/g
same,clearance,[3],12 mL/min/kg
same,Vd,[4],0.8 L/kg
same,half-life,[5],66 min
same,bioavailability,[6],67%
same,clearance,[15],2 mL/min/kg
same,Vd,[16],1 L/kg
same,half-life,[17],342 min
same,bioavailability,[18],57%
same,CLH,[7],0.95 mL/min/g
same,CLH,[8],< 0.45 mL/min/g
